From US8604192B2, “Cyclohexenyl nucleic acids analogs” (Isis Pharmaceuticals, Inc., priority 2008, dated 2013)

Legend:
PTEN = assay: 3-10-3 gapped oligomeric compounds targeted to PTEN: in vivo study, liver mRNA levels by real-time PCR; design: species or system Balb/c mice; conditions: estimated ED50 for liver PTEN mRNA reduction (% UTC); single dose of 3.2, 10, 32 and 100 mg/kg; sacrificed 48 hours after administration; calculated using Graphpad Prism
From the text: Quantitation of target mRNA levels is accomplished by real-time quantitative PCR using the ABI PRISM™ 7600, 7700, or 7900 Sequence Detection System (PE-Applied Biosystems, Foster City, Calif.) according to manufacturer's instructions. This is a closed-tube, non-gel-based, fluorescence detection system which allows high-throughput quantitation of polymerase chain reaction (PCR) products in real-time. As opposed to standard PCR in which amplification products are quantitated after the PCR is completed, products in real-time quantitative PCR are quantitated as they accumulate. […] With each cycle, additional reporter dye molecules are cleaved from their respective probes, and the fluorescence intensity is monitored at regular intervals by laser optics built into the ABI PRISM™ Sequence Detection System. In each assay, a series of parallel reactions containing serial dilutions of mRNA from untreated control samples generates a standard curve that is used to quantitate the percent inhibition after antisense oligonucleotide treatment of test samples.
Prior to quantitative PCR analysis, primer-probe sets specific to the target gene being measured are evaluated for their ability to be “multiplexed” with a GAPDH amplification reaction. […]

[1] = system: complementary RNA (20-mer RNA); assay: Tm of gapped oligomeric compound with complementary RNA; format: binding; conditions: 100 mM phosphate buffer, 0.1 mM EDTA, pH 7, 260 nm, 4 μM oligomeric compound and 4 μM complementary RNA
Procedure: (§1) Six week old Balb/c mice (Jackson Laboratory, Bar Harbor, Me.) were injected with a single dose of ASOs 464846 and 464847 targeted to PTEN at a dose of 3.2, 10, 32 and 100 mg/kg. The mice were sacrificed 48 hours following the last administration. Liver tissues were homogenized and mRNA levels were quantitated using real-time PCR using procedures illustrated herein for comparison to untreated control levels (% UTC). Plasma chemistry analysis was also completed. Tms were determined in 100 mM phosphate buffer, 0.1 mM EDTA, pH 7, at 260 nm using 4 μM of the gapped oligomeric compounds listed below and 4 μM of the complementary RNA.

[2] = Liver transaminase levels (ALT) in serum, plasma chemistry analysis; format: in vivo, Balb/c mice; conditions: approximate serum level, mice, 48 hours; for ALT @ 3.2 mg/kg: single dose 3.2 mg/kg; for ALT @ 10 mg/kg: single dose 10 mg/kg; for ALT @ 32 mg/kg: single dose 32 mg/kg; for ALT @ 100 mg/kg: single dose 100 mg/kg
Procedure: as §1
Liver transaminase levels, alanine aminotranferease (ALT) and aspartate aminotransferase (AST), in serum were also measured relative to saline injected mice.

| Substance | ED50 (PTEN) [mg/kg] | Tm (° C.) vs. 20-mer RNA [1] [°C] | ALT @ 3.2 mg/kg [2] | ALT @ 10 mg/kg [2] | ALT @ 32 mg/kg [2] | ALT @ 100 mg/kg [2] |
| --- | --- | --- | --- | --- | --- | --- |
| Te^mCeTeTAG^mCA^mCTGGC^mCeTeTe (DNA TCTTAGCACTGGCCTT; all phosphorothioate, sugars by position and methylation of C not given here; 3-10-3 gapmer, wing nucleosides defined elsewhere, some cytosines 5-methylated) [05/464846] | 91 | 62.35 | 38 | 25 | 22 | 22 |
| Tf^mCfTfTAG^mCA^mCTGGC^mCfTfTf (DNA TCTTAGCACTGGCCTT; all phosphorothioate, sugars by position and methylation of C not given here; wing nucleosides modified (marked e), some C 5-methyl) [05/464847] | 22 | 64.37 | 24 | 23 | 24 | 284 |
